Results on 2 compounds are retold here after PMC10147662, “Structural basis for the ligand promiscuity of the neofunctionalized, carotenoid-binding fasciclin domain protein AstaP” (Communications Biology, 2023).

Test [1] concerns the target AstaPo1 (AstaP-orange1), residues 21-223 (Coelastrella astaxanthina, UniProt S6BQ14). The experiment in a line: differential scanning calorimetry, holoform vs apoform. The settings on record: 20 mM Na-phosphate pH 7.0, 1 °C per min, apo Tm ~60 °C. The class given is binding. (In general: Differential scanning calorimetry records heat flow against a reference as temperature is scanned.)

Test [2] addresses T1, AstaPo1^41–190 (Coelastrella astaxanthina, UniProt S6BQ14).
T1 construct: gene astaP; isolated FAS1 domain 41-190, N- and C-terminal regions removed, His6 cut leaving GPHM, E. coli, 16 kDa, monomer
The experiment in a line: SEC with diode-array absorbance; Trp fluorescence quenching; DSC of holoform. The settings on record: holoform from ZEA-synthesizing E. coli; apoform insoluble. The class given is binding.

Molecules are shown by their SMILES.

Chain of AstaPo1 (AstaP-orange1), residues 21-223 (S6BQ14 entry or part of it): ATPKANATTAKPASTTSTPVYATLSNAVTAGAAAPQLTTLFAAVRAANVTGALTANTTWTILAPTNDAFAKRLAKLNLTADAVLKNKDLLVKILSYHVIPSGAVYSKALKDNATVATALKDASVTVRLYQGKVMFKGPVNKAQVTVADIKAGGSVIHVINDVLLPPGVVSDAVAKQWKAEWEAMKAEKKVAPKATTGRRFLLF
T1 sequence (S6BQ14 entry or part of it): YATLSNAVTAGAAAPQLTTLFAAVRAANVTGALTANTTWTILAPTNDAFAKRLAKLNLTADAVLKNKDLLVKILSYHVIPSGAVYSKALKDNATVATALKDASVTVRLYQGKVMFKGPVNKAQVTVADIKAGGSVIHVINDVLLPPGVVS

As for `CC1=C(/C=C/C(C)=C/C=C/C(C)=C/C=C/C=C(C)/C=C/C=C(C)/C=C/C2=C(C)C(=O)CCC2(C)C)C(C)(C)CCC1=O` [canthaxanthin], the Tm increase in test [1] (holoform from CAN-synthesizing E. coli) was greater than 15 °C.

`CC1=C(/C=C/C(C)=C/C=C/C(C)=C/C=C/C=C(C)/C=C/C=C(C)/C=C/C2=C(C)C[C@@H](O)CC2(C)C)C(C)(C)C[C@H](O)C1` [zeaxanthin]: the Tm increase in test [1] (holoform from ZEA-synthesizing E. coli) is greater than 15 °C. The “SEC with diode-array absorbance; Trp fluorescence quenching; DSC of holoform” value in test [2] is listed as “which confirms the direct carotenoid interaction within this domain”.
